Test results as given in patent publication US20110009352A1, “RESTORATIVE AGENT FOR ANTIBACTERIAL PEPTIDE PRODUCTION ABILITY” (Minophagen Pharmaceutical Co., LTD., priority 2009, published 2011).

Assays:
Pseudomonas aeruginosa [1] = experiment: Survival rate of burn-injured, Pseudomonas aeruginosa-administered mice; format: in vivo, mouse
Experimental: A normal mouse was given a burn injury on the dorsal side, and Pseudomonas aeruginosa was applied to the burn site in an amount of 100 CFU (Colony-Forming Units). Subsequently, glycyrrhizin was intraperitoneally administered to the mouse at 2 hours, 24 hours and 72 hours after the occurrence of burn injury, each time in an amount of 10 mg per kilogram of body weight of the mouse (an amount of 10 mg/kg), and it was checked whether the mouse was alive or dead. The same operation was carried out on 10 mice, and the survival rate of the mice was checked. The horizontal axis of the graph of FIG. 1 represents the number of days (days) after the Pseudomonas aeruginosa infection.
The experiment was carried out in the same manner as in Example 1, except that physiological saline was intraperitoneally administered instead of glycyrrhizin, and the survival rate of the mice was checked.

Pseudomonas aeruginosa [2] = experiment: Amount of Pseudomonas aeruginosa in blood and spleen homogenate specimens of infected burn mice (colony counting); format: in vivo; settings: 100 CFU, 10 mg/kg i.p. at 2 and 12 hours after infection, 48 hours after infection
Experimental: A normal mouse was given a burn injury on its dorsal side, and was infected at the burn site with Pseudomonas aeruginosa in an amount of 100 CFU. Subsequently, glycyrrhizin was intraperitoneally administered to the mouse at 2 hours and 12 hours after the infection with Pseudomonas aeruginosa, each time in an amount of 10 mg per kilogram of body weight of the mouse (an amount of 10 mg/kg). Subsequently, after 48 hours from the infection with Pseudomonas aeruginosa, blood and spleen were collected from the mouse, and the amounts of Pseudomonas aeruginosa in the blood specimen and the spleen homogenate specimen were measured by a colony-counting method. The vertical axis of the graph of FIG. 4 represents the amount of Pseudomonas aeruginosa in 1 ml of the specimen (amount of CFU). The experiment was carried out in the same manner as in Example 2, except that physiological saline was intraperitoneally administered instead of glycyrrhizin, and the amounts of Pseudomonas aeruginosa in the blood specimen and the spleen homogenate specimen were measured.

MBD-1 [3] = experiment: Amount of MBD-1 in skin tissue homogenate around the burn site (ELISA); format: in vivo; settings: 10 mg/kg i.p. 2 hours after burn, skin collected 0.5-24 hours after burn
Experimental: A normal mouse was given a burn injury on its dorsal side, and was intraperitoneally administered with glycyrrhizin in an amount of 10 mg per kg of body weight of the mouse (an amount of 10 mg/kg), 2 hours after the occurrence of burn injury. The skin tissue was collected from the surroundings of the burn site after 0.5 hours, 6 hours, 12 hours, 18 hours and 24 hours from the occurrence of burn injury, and the collected skin tissues were homogenized. The amount of MBD-1 in the homogenate liquid was measured by ELISA. The horizontal axis of the graph of FIG. 5 represents the time (hours) after the occurrence of burn injury. The experiment was carried out in the same manner as in Example 3, except that physiological saline was intraperitoneally administered instead of glycyrrhizin, and the amount of MBD-1 in the homogenate liquid was measured.

MBD-1 [4] = experiment: Amount of MBD-1 in culture supernatant of epidermal keratinocytes and/or Gr-1+CD11b+ cells (Transwell, ELISA); format: cell-based, mouse; settings: 10 μg/ml, 48 hours
Experimental: Epidermal keratinocytes (EK) were collected from the skin of a normal mouse, and a cell solution was prepared to a concentration of 2×10^6 cells/ml using RPMI1640 medium supplemented with 10% inactivated fetal bovine serum. Furthermore, a normal mouse was given a burn injury on its dorsal side, and after 12 hours, Gr-1^+CD11b^+ cells were collected from the skin tissues around the burn site. A cell solution of the collected cells was prepared to a concentration of 5×10^5 cells/ml using RPMI1640 medium supplemented with 10% inactivated fetal bovine serum. In the co-presence of glycyrrhizin in an amount of 10 μg/ml, the epidermal keratinocytes and the Gr-1^+CD11b^+ cells were cultured in a same Transwell at 37° C. After 48 hours from the initiation of culture, the amount of MBD-1 in the supernatant of the culture fluid was measured by ELISA. The experiment was carried out in the same manner as in Example 4, except that glycyrrhizin was not allowed to be co-present, and the amount of MBD-1 in the supernatant of the culture fluid was measured. The experiment was carried out in the same manner as in Example 4, except that only epidermal keratinocytes (2×10^6 cells/ml) were cultured without allowing glycyrrhizin to be co-present, and the amount of MBD-1 in the supernatant of the culture fluid was measured. The experiment was carried out in the same manner as in Example 4, except that only epidermal keratinocytes (2×10^6 cells/ml) were cultured in the co-presence of glycyrrhizin in an amount of 10 μg/ml, and the amount of MBD-1 in the supernatant of the culture fluid was measured. The experiment was carried out in the same manner as in Example 4, except that only Gr-1^+CD11b^+ cells (5×10^5 cells/ml) were cultured without allowing glycyrrhizin to be co-present, and the amount of MBD-1 in the supernatant of the culture fluid was measured.

MBD-3 = experiment: Amount of MBD-3 in culture supernatant of LPS-treated epidermal keratinocytes and/or Gr-1+CD11b+ cells (Transwell, ELISA); format: cell-based, mouse; settings: 10 μg/ml, 48 hours
Experimental: Epidermal keratinocytes (EK) were collected from the skin of a normal mouse, and a cell solution was prepared to a concentration of 2×10^6 cells/ml using RPMI1640 medium supplemented with 10% inactivated fetal bovine serum. In order to induce MBD-3, the cells were treated with lipopolysaccharides (LPS) in an amount of 1 μg/ml for 6 hours. Furthermore, a normal mouse was given a burn injury on its dorsal side, and after 12 hours, Gr-1^+CD11b^+ cells were collected from the skin tissues around the burn site. A cell solution of the collected cells was prepared to a concentration of 5×10^5 cells/ml using RPMI1640 medium supplemented with 10% inactivated fetal bovine serum. In the co-presence of glycyrrhizin in an amount of 10 μg/ml, the LPS-treated epidermal keratinocytes and the Gr-1^+CD11b^+ cells were cultured in a same Transwell at 37° C. After 48 hours from the initiation of culture, the amount of MBD-3 in the supernatant of the culture fluid was measured by ELISA. The experiment was carried out in the same manner as in Example 5, except that glycyrrhizin was not allowed to be co-present, and the amount of MBD-3 in the supernatant of the culture fluid was measured. The experiment was carried out in the same manner as in Example 5, except that only LPS-treated epidermal keratinocytes (2×10^6 cells/ml) were cultured without allowing glycyrrhizin to be co-present, and the amount of MBD-3 in the supernatant of the culture fluid was measured. The experiment was carried out in the same manner as in Example 5, except that only LPS-treated epidermal keratinocytes (2×10^6 cells/ml) were cultured in the co-presence of glycyrrhizin in an amount of 10 μg/ml, and the amount of MBD-3 in the supernatant of the culture fluid was measured. The experiment was carried out in the same manner as in Example 5, except that only Gr-1^+CD11b^+ cells (5×10^5 cells/ml) were cultured without allowing glycyrrhizin to be co-present, and the amount of MBD-3 in the supernatant of the culture fluid was measured.

MBD-1 [5] = experiment: Quantity-dependency of glycyrrhizin on MBD-1 production ability restoration (Transwell co-culture, ELISA); format: cell-based, mouse; settings: 48 hours
Experimental: Epidermal keratinocytes (2×10^6 cells/ml) were collected from the skin of a normal mouse. Furthermore, a normal mouse was given a burn injury on its dorsal side, and after 12 hours, Gr-1^+CD11b^+ cells (5×10^5 cells/ml) were collected from the skin tissues around the burn site. Using the medium for keratinocyte culture as a medium, and making glycyrrhizin to be co-present in an amount of 1 μg/ml (Example 6), 10 μg/ml (Example 7), 100 μg/ml (Example 8) or 300 μg/ml (Example 9), the epidermal keratinocytes and the Gr-1^+CD11b^+ cells were cultured in a same Transwell at 37° C. The amount of MBD-1 in the supernatant of the culture fluid after 48 hours from the initiation of culture was measured by ELISA. The results are shown in the semilogarithmic graph of FIG. 8. The experiment was carried out in the same manner as in Examples 6 to 9, except that glycyrrhizin was not made to be co-present, and the amount of MBD-1 in the supernatant of the culture fluid was measured. The results are shown in the bar graph of FIG. 8. […] Furthermore, the two graphs share the vertical axis (the amount of MBD-1).

CCL2 = CCL2 production by Gr-1+CD11b+ cells (ELISA); format: cell-based, mouse; settings: 10 μg/ml; 48 hours; vs no glycyrrhizin
Experimental: (§1) A normal mouse was given a burn injury on its dorsal side, and after 12 hours, Gr-1^+CD11b^+ cells (2×10^6 cells/ml) were collected from the skin tissue around the burn site. Using the keratinocyte culture medium as a medium, the Gr-1^+CD11b^+ cells were cultured in a 96-well plate at 37° C. in the co-present of glycyrrhizin in an amount of 10 μg/ml. After 48 hours from the initiation of culture, the amounts of CCL2 and IL-10 in the supernatant of the culture fluid were measured by ELISA. […] The experiment was carried out in the same manner as in Example 10, except that glycyrrhizin was not made to be co-present, and the amounts of CCL2 and IL-10 in the supernatant of the culture fluid were measured.

IL-10 = IL-10 production by Gr-1+CD11b+ cells (ELISA); format: cell-based, mouse; settings: 10 μg/ml; 48 hours; vs no glycyrrhizin
Experimental: as §1

MBD-1 [6] = experiment: MBD-1 production of epidermal keratinocytes cultured with recombinant CCL2 and/or IL-10; format: cell-based, mouse; settings: recombinant CCL2 5 ng/ml and/or IL-10 1 ng/ml; 48 hours
Experimental: Epidermal keratinocytes (2×10^6 cells/ml) collected from the skin of a normal mouse were cultured at 37° C. in the co-presence of CCL2 (5 ng/ml) (Reference Example 18), IL-10 (1 ng/ml) (Reference Example 19), or CCL2 (5 ng/ml) and IL-10 (1 ng/ml) (Reference Example 20), which had been produced by a known recombinant DNA technology using a recombinant. The amount of MBD-1 in the supernatant of the culture fluid after 48 hours from the initiation of culture was measured by ELISA.

How did the “deaths among the mice (survival)” value (Pseudomonas aeruginosa [1]; 100 CFU P. aeruginosa at burn site, 10 mg/kg i.p. at 2, 24 and 72 hours after burn, up to the 7th day, 10 mice) turn out when `CC1(C)[C@@H](O[C@H]2O[C@H](C(=O)O)[C@@H](O)[C@H](O)[C@H]2O[C@@H]2O[C@H](C(=O)O)[C@@H](O)[C@H](O)[C@H]2O)CC[C@]2(C)[C@H]3C(=O)C=C4[C@@H]5C[C@@](C)(C(=O)O)CC[C@]5(C)CC[C@@]4(C)[C@]3(C)CC[C@@H]12` [glycyrrhizin] was run?
Its value is “none of the individuals died”.

What about the “survival rate compared with mice not administered with glycyrrhizin (physiological saline)” value (Pseudomonas aeruginosa [1]; 100 CFU P. aeruginosa, 10 mg/kg i.p. at 2, 24 and 72 hours, after 2 days and on) of the same molecule?
The value was “markedly high”.

And the “amount of Pseudomonas aeruginosa in the blood specimen vs saline mouse” value (Pseudomonas aeruginosa [2])?
The value was “markedly reduced”.

What about the “amount of Pseudomonas aeruginosa in the spleen homogenate specimen vs saline mouse” value (Pseudomonas aeruginosa [2]) of the same molecule?
Its value is “markedly reduced”.

And the “amount of MBD-1 in skin tissue homogenate vs saline mouse” value (MBD-1 [3])?
The value was “larger”.

What about the “amount of MBD-1 in culture supernatant vs no glycyrrhizin” value (MBD-1 [4]; co-culture of epidermal keratinocytes and Gr-1+CD11b+ cells) of the same molecule?
The value was “larger”.

And the “MBD-1 production ability inhibiting effect of Gr-1+CD11b+ cells against epidermal keratinocytes” value (MBD-1 [4]; co-culture)?
Its value is “reduced this inhibiting effect”.

And the “MBD-1 production ability promoting effect against epidermal keratinocytes” value (MBD-1 [4]; epidermal keratinocytes alone)?
The value was “did not have an MBD-1 production ability promoting effect”.

What about the “MBD-3 production ability promoting effect against LPS-treated epidermal keratinocytes” value (MBD-3; LPS-treated epidermal keratinocytes alone) of the same molecule?
Its value is “did not have an MBD-3 production ability promoting effect”.

What about the “amount of MBD-3 in culture supernatant vs no glycyrrhizin” value (MBD-3; co-culture of LPS-treated epidermal keratinocytes and Gr-1+CD11b+ cells) of the same molecule?
Its value is “larger”.

What about the “MBD-3 production ability inhibiting effect of Gr-1+CD11b+ cells against LPS-treated epidermal keratinocytes” value (MBD-3; co-culture) of the same molecule?
The value was “reduced this inhibiting effect”.

And the “MBD-1 production ability restoring effect” value (MBD-1 [5]; glycyrrhizin 10 μg/ml (Example 7))?
Its value is “particularly excellent”.

And the “MBD-1 production ability restoring effect” value (MBD-1 [5]; glycyrrhizin 100 μg/ml (Example 8))?
Its value is “particularly excellent”.

What about the “MBD-1 production ability restoring effect” value (MBD-1 [5]; glycyrrhizin 300 μg/ml (Example 9)) of the same molecule?
The value was “particularly excellent”.

And the “CCL2 production ability of Gr-1+CD11b+ cells” value (CCL2)?
Its value is “inhibited”.

What about the “IL-10 production ability of Gr-1+CD11b+ cells” value (IL-10) of the same molecule?
Its value is “inhibited”.

For “CCL2: chemokine CCL2 produced by known recombinant DNA technology, 5 ng/ml (Reference Example 18)”, which “MBD-1 production ability of the epidermal keratinocytes” value (MBD-1 [6]) is on record?
Its value is “inhibited”.

B1: IL-10: interleukin-10 produced by known recombinant DNA technology, 1 ng/ml (Reference Example 19) (protein, UniProt P18893 19-178, looked up)
Interleukin-10: SRGQYSREDNNCTHFPVGQSHMLLELRTAFSQVKTFFQTKDQLDNILLTDSLMQDFKGYLGCQALSEMIQFYLVEVMPQAEKHGPEIKEHLNSLGEKLKTLRMRLRRCHRFLPCENKSKAVEQVKSDFNKLQDQGVYKAMNEFDIFINCIEAYMMIKMKS
With B1 as the molecule, how does the “MBD-1 production ability of the epidermal keratinocytes” value (MBD-1 [6]) read?
Its value is “inhibited”.
